Reference: US6288110A, “Pharmaceutical compositions comprising disulfiram” (Yeda Research and Development Co Ltd., priority 1998, dated 2001)
Read-outs that look alike come from different tables or passages of the source.

How the values were obtained:
[1] = system: neoplasia of the large bowl; conditions: 1,2-dimethylhydrazine; cited from earlier work
[2] = system: metabolism of the carcinogen azomethane; conditions: cited from earlier work
3T3 fibroblasts = experiment: Cell rounding, 3T3 fibroblasts; assay type: cell-based; conditions: 1 μM
C6 rat glioma cells = experiment: DNA synthesis (3H-thymidine incorporation) in C6 rat glioma cells; assay type: cell-based; conditions: for IC (maximal): Rattus norvegicus
Method: C6 rat glioma cells were routinely cultured in DMEM supplemented with 5% FCS (Biological Industries, Israel), GPS (100 U/ml penicillin, […] streptomycin (Biological Industries, Israel) and 2 mM glutamine (Biolab Ltd. Israel)) and 125 μg/ml fungizone (Biolab Ltd, Israel).
C6 rat glioma cells were plated in 96-well plates (Nunc, Denmark) (5000 cells per well) in DMEM with 5% FCS. After 6 hours the cells were rinsed and incubated for 48 hours in serum free medium. 5% FCS or growth factors were then added to the cells for 24 hours (triplicates). ^3 H-methyl-thymidine (5μCi/ml) (Rotem Ind. Ltd., Israel) was added to the cells for the last 14 hours. The cells were rinsed with 100 μl methanol for 10 minutes, followed by 200 μl 5% trichloroacetic acid, and then rinsed and lysed with 150 μl 0.3M NaOH. Radioactive thymidine incorporated into the DNA was determined for 1 min with 3 ml scintillation liquid (ULTIMA GOLD Packard) in a β-counter. DNA synthesis assays were performed in triplicates.
(§1) Disulfiram was prepared in 0.1 mM stock solutions in DMSO. Control samples were incubated with the appropriate concentration of DMSO. Inhibition was calculated as percentage of DNA synthesis of control.
(§2) To determine whether disulfiram acts directly on endothelial cells rather than on accessory cells such as macrophages and mast cells that can be responsible for the development of an angiogenic response in vivo, the effect of the drug on the growth of BCE cells was examined in vitro as described in section (c) of "Materials and Methods" above. DNA synthesis in BCE cells was measured in presence of increasing concentrations of disulfiram incubated for 24 hours with the cells. […] Maximal inhibitory activity (80%) for BSMC was at 0.5-1 μM disulfiram, while maximal inhibitory activity for C6 glioma cells or BALB/MK keratinocytes was at concentrations 10 fold higher (2-3 μM) than those for endothelial cells (0.2-0.5 μM).
To examine the time course of the effect of disulfiram and whether the effect was reversible, cells were incubated with disulfiram for various periods of time (1, 2, 4 and 24 hours), then washed away and DNA synthesis was determined. One to 4 hours of exposure to disulfiram were enough to induce maximal inhibitory effect at concentrations ranging from 0.5 μM for BCE cells (FIG. 3A) to 5 μM for BALB/MK keratinocytes (FIG. 3C) and C6 glioma cells (FIG. 3D). […] BSMC were less sensitive as far as time course is concerned when incubated with 1 μM disulfiram. Following 4 hours of incubation with 1 μM disulfiram, DNA synthesis inhibition in BSMC reached only 50% (FIG. 3B). […]

C6 glioma cells = experiment: Cell rounding, C6 glioma cells; assay type: cell-based, rat; conditions: 2 μM
[3] = system: transmammary carcinogenesis; conditions: 7,12-dimethylbenz(a)anthracene, mice; cited from earlier work
dopamine-β-hydroxylases = conditions: cited from earlier work
BSMC = experiment: Cell rounding, BSMC; assay type: cell-based, bovine; conditions: 5 μM
Meth A tumor cell = conditions: together with ascorbic acid, in vitro; cited from earlier work
oxidases = conditions: cited from earlier work
endothelial cells = experiment: Cell rounding, capillary endothelial cells; assay type: cell-based, bovine
Method: Capillary endothelial cells were grown during 48 hours to 40-50% confluency and disulfiram was then added to the cells for 20 hours as described in section (g) of "Materials and Methods" above. […] The abundance of apoptotic cells was dose-dependent.

[4] = ingested or injected intraperitoneally; cited from earlier work
[5] = cited from earlier work
[6] = system: bovine capillary endothelial cells (BCE); experiment: DNA synthesis (3H-thymidine incorporation) in BCE cells; assay type: cell-based
Method: Brain bovine capillary endothelial cells (BCE) and bovine vascular smooth muscle cells (BSMC), kindly provided by Prof. Israel Vlodavsky (Hadassah Medical School, Jerusalem, Israel), were cultured at 37° C. in low glucose DMEM (1 g/liter) supplemented with 10% calf serum (HyClone, Logan, Utah, U.S.A.), a serum-free supplement: biogro-1 (Beth Haemek, Israel) and GPS.
Bovine capillary endothelial cells (BCE) and bovine aortic BSMC were plated in 24-well plates (6000 cells per well) in 500 μl DMEM medium supplemented with 10% Colorado calf serum (CCS) (GIBCO, USA) and GPS. After 24 hours, medium was changed to starvation medium (2% CCS, 0.5% BSA, GPS) for 24 hours. ^3 H-methyl-thymidine (5 μCi/ml) was added for the last 6 hours. DNA synthesis assays were performed as described above, in triplicates. DNA synthesis assays in BALB/MK keratinocytes were performed as previously described (Marikovsky, 1995).-DNA synthesis assays were performed in triplicates.
as §1, §2
To examine the time course of the effect of disulfiram and whether the effect was reversible, cells were incubated with disulfiram for various periods of time (1, 2, 4 and 24 hours), then washed away and DNA synthesis was determined. One to 4 hours of exposure to disulfiram were enough to induce maximal inhibitory effect at concentrations ranging from 0.5 μM for BCE cells (FIG. 3A) to 5 μM for BALB/MK keratinocytes (FIG. 3C) and C6 glioma cells (FIG. 3D). […] BSMC were less sensitive as far as time course is concerned when incubated with 1 μM disulfiram. Following 4 hours of incubation with 1 μM disulfiram, DNA synthesis inhibition in BSMC reached only 50% (FIG. 3B). The data shown here indicate that the damage for capillary endothelial cells, following a short incubation of 1 to 2 hours, was maximal and that, at least in a time scale of 24 hours, this damage was non-reversible.

aldehyde dehydrogenases = conditions: cited from earlier work
[7] = system: kidney, liver, stomach, lungs and spleen; experiment: Pathological and histological examination of tissues of treated animals; assay type: in vivo, mice
Method: C6 rat glioma cells (10^6) were injected subcutaneously into the back of the neck of CD1 nude male mice. After 3 days, 1 ml of aqueous solutions with or without 0.1-0.5 mM disulfiram (25-120 μg) was introduced per os to the mice using a feeding needle. Mice were orally fed three times per week. Tumors were removed 30 days following C6 cells injection, weighed, fixed in buffered formalin and histological sections were prepared. Each experimental group included 8 animals, and experiments were repeated twice.
Since disulfiram inhibits angiogenesis both in vivo in mice and in vitro in C6 glioma cells, it can be assumed that tumor growth inhibition observed for disulfiram is the result of its dual action, one on the neovascularization of the tumor and one on the C6 glioma cells. […] Blood vessels examined in these tissues were also not affected.

CCN(CC)C(=S)SSC(=S)N(CC)CC [disulfiram, Bis(diethylthiocarbamoyl) disulfide]
interference with neoplasia of the large bowl [1]: interfere with induction of cancer
inhibition of azomethane metabolism [2]: inhibited the metabolism
cell rounding (3T3 fibroblasts): did not change their shape to the rounded form
maximal inhibitory concentration relative to endothelial cells, fold higher (C6 rat glioma cells; C6 glioma vs endothelial cells (0.2-0.5 μM)): 10 fold
persistence of inhibitory effect after short exposure (C6 rat glioma cells; C6 glioma, 24 hours following short exposure): inhibitory effect seemed to be maintained
IC (maximal) (C6 rat glioma cells; C6 glioma cells, read-out: concentration of maximal inhibitory activity (DNA synthesis)): 2 to 3 µM
IC (maximal) (C6 rat glioma cells; C6 glioma, 1 to 4 hours of exposure, washed, read-out: concentration inducing maximal inhibitory effect on DNA synthesis, short exposure): 5 µM
cell rounding (C6 glioma cells): did not change their shape to the rounded form
inhibition of transmammary carcinogenesis [3]: inhibit transmammary carcinogenesis
inhibition of dopamine-β-hydroxylases (dopamine-β-hydroxylases): inhibit
cell rounding (BSMC): did not change their shape to the rounded form
inhibition of Meth A tumor cell proliferation (Meth A tumor cell): augmented inhibition
inhibition of oxidases (oxidases): inhibit
cell rounding (endothelial cells): quickly became rounded
distribution throughout the body [4]: extensively distributed throughout the body including the brain
solubility in water [5]: soluble in water
solubility in methanol, acetone or chloroform ([5]; hydrophobic solutions): solubilizes better
inhibition of DNA synthesis in BCE cells (in words) ([6]; 0.1-0.5 μM, 24 hours): inhibit DNA synthesis in BCE cells in a dose dependent manner
reversibility of damage for capillary endothelial cells ([6]; 1 to 2 hours incubation, time scale of 24 hours): non-reversible
concentration used in vitro for endothelial cells (inhibition of growth) ([6]; BCE): 0.1 to 0.2 µM
inhibition of DNA synthesis, short incubation (in words) ([6]; BCE, 0.5 μM, 1-2 hours of incubation): near maximal inhibition of DNA synthesis
persistence of inhibitory effect after short exposure ([6]; BCE, 24 hours following short exposure): inhibitory effect seemed to be maintained
IC (maximal) ([6]; Bos taurus, Endothelial cell, BCE (endothelial cells), 24 hours, read-out: concentration of maximal inhibitory activity (DNA synthesis)): 0.2 to 0.5 µM
IC (maximal) ([6]; Bos taurus, Endothelial cell, BCE, 1 to 4 hours of exposure, washed, read-out: concentration inducing maximal inhibitory effect on DNA synthesis, short exposure): 0.5 µM
IC100 ([6]; Bos taurus, Endothelial cell, BCE, 24 hours, read-out: concentration of complete inhibition of DNA synthesis): 0.5 µM
inhibition of aldehyde dehydrogenases (aldehyde dehydrogenases): inhibit
effect on blood vessels in tissues [7]: not affected
pathological effect on tissues [7]: no effect on these tissues
